Measured values published in PMC10051485 (Pharmaceuticals, 2023).
“Also recorded” adds a separate entry of the source.

What was measured:
[1] = Antioxidant activity (DPPH assay); details: for IC50: DPPH 0.4 mM, 30 min in darkness, read-out: IC50 (µM) ± RSD, antioxidative activity
Description: Increased generation of free radicals also results in cytotoxicity from Aβ42. This effect might be associated with the Aβ1–42 mediated neurotoxicity. Therefore, it was intriguing to research the roles of the synthesized compounds in assisting oxidative stress, thus preventing cell death. By employing vitamin C as a positive control, the antioxidative properties of synthesized compounds were assessed using the DPPH assay. The activities were presented as the IC50 in Table 4.
Antioxidant activity of tested compounds was determined by the reaction of stable DPPH radical with some modification. Briefly, various concentrations of test compounds were added in 96-well plates and then the methanolic DPPH solution (0.4 mM, 0.1 mL) into each well. The reaction mixture was placed for 30 min in darkness. The degree of purple DPPH decolorization to yellow DPPH indicated the scavenging capacity of the test compounds. The absorbance of the mixture was determined at 517 nm using a microplate reader and L-ascorbic acid served as a positive control. The percent of antioxidant activity was calculated as follow: [1 − (Asample − Ablank)/Acontrol] × 100.

[2] = biological target: T1, Acetylcholinesterase (AChE) (Electrophorus electricus, UniProt O42275); assay: Antiacetylcholinesterase activity (Ellman assay); type: biochemical, Electrophorus electricus (electric eel); details: for inhibition at 100 µM: read-out: % Inhibition ± RSD of acetylcholinesterase; for % Inhibition ± RSD of acetylcholinesterase: at 100 µM
T1 construct: purchased Sigma type VI-S
Description: All the chemicals were purchased from commercial suppliers and were used without any purification. Acetylcholinesterase from Electrophorus electricus (electric eel) type VI-S was produced from Sigma. […] SK-N-SH human neuroblastoma cell line was obtained from the American Type Culture Collection (ATCC HTB-11). The melting point of all compounds was determined on an Electrothermal model 9100 capillary melting point apparatus. Infrared (IR) spectra were run on Fourier Transform Infrared Spectroscopy (FT-IR) (Nicolet 6700, Thermo Scientific, Waltham, MA, USA) using the direct compression technique and record in cm^−1. Proton and carbon nuclear magnetic resonance (^1H NMR, ^13C NMR) spectra were obtained on an Advance 300 MHz NMR Spectroscopy (DPX-3000, Bruker, Switzerland) at 300 MHz and 75.45 MHz, respectively. Chemical shifts (δ) were reported in parts per million (ppm). The NMR solvents used were deuterated dimethylsulfoxide (DMSO-d6, δ = 2.49 ppm) and deuterated chloroform (CDCl3, δ = 7.25 ppm). Mass spectra were determined on a LCQ Fleet Ion Trap Mass Spectrometry using the ESI method. Silica gel 60 (Merck, Art 7734) was used for column chromatography as an adsorbent. The ratio of sample and the adsorbent was about 1:40–60 by weight. The mobile phases developed for thin-layer chromatography (TLC) were generally applied for a column. TLC investigations routinely used for chromatographic separations were carried out on silica gel F254 coated aluminum sheets 20 × 20 cm (Merck, 0.2 mm thickness). The components were detected by visualization under ultraviolet (UV) light at λ of 254 and 365 nm. All solvents were reagent grade and, when necessary, were purified and dried by standard methods. Starting materials and reagents were obtained from commercial suppliers.
Acetylcholinesterase (AChE) inhibitory activity was assayed by modified Ellman’s method using 96-well microplates. […] The absorbance of the mixture in each well was measured at 405 nm by using a microplate reader. After adding 25 µL of 0.22 U/mL AChE in Buffer II into each well, the measurement of absorbance was carried out again at 405 nm and repeated every 45 s for 10 min cycles by a microplate reader (Infinite M200, Tecan, Switzerland). […] The assay was performed in triplicate. […] The percent of enzyme inhibition was calculated as follows: {[(A-B) − (C − D)]/(A − B)} × 100, where A and C were the absorbances of the control treatment and test compounds; and B and D were blank of control and test compounds.

[3] = test system: SK-N-SH neuroblastoma cells; assay: Cytotoxicity on SK-N-SH neuroblastoma cells (MTT assay); details: MTT, 24 h; for Highest concentration that showed nontoxicity on SK-N-SH cells: tested 0–1000 µM; for % Viability ± RSD at the highest nontoxic concentration: at the concentration of Table 2
Description: (§1) SK-N-SH cells were pretreated for 3 h with the respective half-maximal inhibitory doses of the tested compounds (except 9 and 10) before incubating with 25 μM Aβ42 for 24 h to determine the neuroprotective effect against Aβ42-induced toxicity. The relative cell viability (compared with the control) was then assessed.
(§2) Quantitative measurement of cell viability was performed by MTT assay. Briefly, SK-N-SH cells were seeded at a density of 5 × 10^4 cells/100 µL into each well of 96-well plate and incubated at 37 °C in 5% CO2 for 24 h. After incubation, the tested compounds were added at different concentrations, from 0 to 1000 µM. After incubation for 24 h, 50 µL of 3-(4,5-dimethylthiazol-2-yl)-2,5-diphenyltetrazolium bromide (MTT) stock solution (1 mg/mL) was added to each well and incubated at 37 °C for 3 h. Absorbance (A) of each well was measured using a plate reader at a wavelength of 590 nm. Three independent experiments were performed, and results were expressed as mean ± SD. […] Each concentration was prepared in triplicate. […] After incubation for 24 h, 50 µL of MTT stock solution (1 mg/mL) was added to each well and incubated at 37 °C for 3 h. The absorbance (A) of each well was measured using a plate reader at a wavelength of 590 nm. Three independent experiments were performed, and results were expressed as mean ± SD.
(§3) The percent of cell viability was calculated as follow: (A590nm of treated cells/A590nm of untreated cells) × 100.

[4] = in vitro; details: human
Description: as §1, §2, §3

[5] = biological target: T2, Aβ1–42 (Homo sapiens, UniProt P05067); assay: Anti-Aβ aggregation activity (Thioflavin T fluorescence assay); type: biochemical; details: for IC50: ThT assay, Aβ1–42, 24 h, room temperature, pH 7.4, read-out: IC50 (µM) ± RSD, antiaggregation action on Aβ42
T2 construct: Amyloid beta (Aβ1–42) was purchased from the American Peptide Company; purchased American Peptide Company (Sunnyvale, CA, USA)
Description: Each compound was diluted in 50 mM Tris-HCl (pH 7.4) to achieve a concentration between 10 nM and 100 µM using 5 concentration points. A total of 1 µL of each sample solution was added to 96-well plates. […] The plate was incubated in the dark at room temperature for 24 h with no agitation. After an incubation period, 200 µL of 5 µM ThT in 50 mM Tris-HCl (pH 7.4) was added to each well. Fluorescence was measured on a SpectraMax GEMINI EM (Molecular Devices, Sunnyvale, CA, USA) dual scanning microplate spectrofluorometer with excitation and emission wavelengths at 446 nm and 500 nm, respectively. The percent of antiaggregation was calculated as follows: [1 − (Fsample − Fblank)/Fcontrol] × 100.

[6] = test system: SK-N-SH neuroblastoma cells; assay: Protection of SK-N-SH neuroblastoma against Aβ42-induced cell death (MTT assay); details: for % Viability ± RSD, neuroprotective effect against Aβ induced damage: pretreated 3 h at IC50 of antiaggregation (compounds 9 and 10 at 31.25 µM), then 25 µM Aβ42 for 24 h; for viability at 31.25 µM: Homo sapiens, SK-N-SH, read-out: % Viability ± RSD, neuroprotective effect against Aβ induced damage
Description: The effects of Aβ42 on the viability of SK-N-SH neuroblastoma cells were investigated using an MTT reduction test. MTT is a tetrazolium salt that can be reduced to formazan by mitochondria dehydrogenase; the reaction is active only in living cells.
The relative cell viability (compared with the control) was then assessed.
as §2, §3

[7] = test system: SK-N-SH cells; assay: Morphological cell changes (phase contrast inverted microscope); type: cell-based, human; details: 25 µM Aβ42, 24 h
Description: The effect of Aβ42 in inducing cell death was confirmed using a phase-contrast inverted microscope.
To determine the effect of designed compounds on cell morphology, the observation of cells on phase contrast inverted microscope was performed. […] After incubation, the medium was removed and replaced with various concentrations of the designed compound and incubated for 24 h. After cells were treated with compounds or Aβ1–42, media were removed and treated cells were washed once with phosphate buffer saline (PBS). Then, cells were observed under phase contrast inverted microscope at 400 magnifications.

T2 sequence (P05067 672-713): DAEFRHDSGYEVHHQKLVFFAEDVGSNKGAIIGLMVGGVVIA
T1 sequence (O42275 24-633): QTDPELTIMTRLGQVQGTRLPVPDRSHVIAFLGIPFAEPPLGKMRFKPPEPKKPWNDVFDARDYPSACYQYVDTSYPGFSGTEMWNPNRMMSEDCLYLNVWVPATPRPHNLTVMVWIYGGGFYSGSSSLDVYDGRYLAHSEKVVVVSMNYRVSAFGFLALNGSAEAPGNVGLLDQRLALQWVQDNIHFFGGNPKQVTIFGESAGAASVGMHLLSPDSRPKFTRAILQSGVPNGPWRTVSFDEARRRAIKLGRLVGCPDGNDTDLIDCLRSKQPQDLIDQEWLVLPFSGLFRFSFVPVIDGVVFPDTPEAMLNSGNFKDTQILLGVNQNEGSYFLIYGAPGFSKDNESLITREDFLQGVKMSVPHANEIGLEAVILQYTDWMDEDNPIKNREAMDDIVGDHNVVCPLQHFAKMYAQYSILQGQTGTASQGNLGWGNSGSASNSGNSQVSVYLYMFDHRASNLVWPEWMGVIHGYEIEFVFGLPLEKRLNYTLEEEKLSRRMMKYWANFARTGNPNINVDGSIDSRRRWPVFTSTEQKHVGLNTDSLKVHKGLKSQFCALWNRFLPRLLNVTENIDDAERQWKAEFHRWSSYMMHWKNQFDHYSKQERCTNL

Compound	IC50 [1]	inhibition at 100 µM [2]	Highest concentration that showed nontoxicity on SK-N-SH cells [3]	viability at 24 h [4]	IC50 [5]	Fold less potent antioxidant than compound 5 ([1]; compared to compound 5)	% Inhibition ± RSD of acetylcholinesterase [2]	% Viability ± RSD, neuroprotective effect against Aβ induced damage [6]	% Viability ± RSD at the highest nontoxic concentration [3]	viability at 31.25 µM [6]	Fold more potent against Aβ aggregation than methyl ester 7 ([5]; compared to compound 7)	Fold increase of antioxidant potency versus compound 9 ([1]; p-CH3 (compound 9) converted to p-F (compound 10))	Fold reduction of anti-Aβ aggregation versus compound 9 ([5]; p-CH3 (compound 9) replaced with p-F (compound 10))	Morphology of SK-N-SH cells treated with Aβ42 and compound [7]
CCOC(=O)Cc1c(C)[nH]c2ccc(Oc3ccccc3)cc12 [Compound 6, 2-Methyl-3-(ethyl ethanoate-2-yl)-5-phenoxy Indole]	190 µM	19.9%	31.25. µM	89.5 ± 2.11%	19.1 µM	–	–	–	–	–	–	–	–	–
Cc1[nH]c2ccc(Oc3ccccc3)cc2c1CC(=O)NC#N [Compound 8, 2-Methyl-3-(cyanoethanamide-2-yl)-5-phenoxy Indole]	85.5 µM	6.61%	62.50 µM	93.8 ± 3.66%	20.6 µM	3.03 fold	–	–	–	–	–	–	–	–
Cc1ccc(S(=O)(=O)NC(=O)Cc2c(C)[nH]c3ccc(Oc4ccccc4)cc23)cc1 [Compound 12, 2-Methyl-3-(4-methylbenzesulfonylethanamide-2-yl)-5-phenoxy Indole]	121 µM	–	15.63 µM	–	9.48 µM	–	31.52 ± 4.90%	71.85 ± 1.82%	90.73 ± 4.64%	–	–	–	–	–
C[S+](C)[O-] [DMSO]	–	–	–	–	–	–	–	–	92.08 ± 2.86%	–	–	–	–	–
CNC(=O)Cc1c(C)[nH]c2ccc(Oc3ccccc3)cc12 [Compound 4, 2-Methyl-3-(methylethanamide-2-yl)-5-phenoxy Indole]	176 µM	9.73%	31.25 µM	93.7 ± 3.23%	3.26 µM	–	–	–	–	72.3 ± 1.85%	4.3 fold	–	–	–
Cc1[nH]c2ccc(Oc3ccccc3)cc2c1CC(=O)NCc1ccc(F)cc1 [Compound 10, 2-Methyl-3-(4-fluorobenzylethanamide-2-yl)-5-phenoxy Indole]	86 µM	–	31.25 µM	–	72.7 µM	–	12.45 ± 4.98%	63.05 ± 2.70%	80.51 ± 3.96%	–	–	3.08 fold	1.4 fold	–
COc1cc(/C=C/C(=O)CC(=O)/C=C/c2ccc(O)c(OC)c2)ccc1O [Curcumin, reference compound]	–	–	15.63 µM	94.4 ± 1.83%	–	–	–	–	–	–	–	–	–	–
COC(=O)Cc1c(C)[nH]c2ccc(Oc3ccccc3)cc12 [Compound 7, 2-Methyl-3-(methyl ethanoate-2-yl)-5-phenoxy Indole]	145 µM	11%	31.25 µM	93.4 ± 2.15%	14 µM	–	–	–	–	83.7 ± 2.21%	–	–	–	–
Cc1[nH]c2ccc(Oc3ccccc3)cc2c1CC(=O)Nc1ccccc1 [Compound 11, 2-Methyl-3-(phenylethanamide-2-yl)-5-phenoxy Indole]	111 µM	30%	15.63 µM	94.3 ± 3.31%	13.1 µM	–	–	–	–	–	–	–	–	–
Cc1[nH]c2ccc(Oc3ccccc3)cc2c1CC(=O)NS(C)(=O)=O [Compound 5, 2-Methyl-3-(methylsulfonylethanamide-2-yl)-5-phenoxy Indole]	28.2 µM	-5.66%	62.50 µM	93 ± 1.02%	3.18 µM	–	–	–	–	–	–	–	–	healthy cell bodies with neurites; also recorded: healthy cell bodies and neuritis
Cc1[nH]c2ccc(Oc3ccccc3)cc2c1CC(=O)O [Compound 3, 2-Methyl-3-(carboxymethyl)-5-phenoxy Indole]	47.1 µM	29.3%	31.25 µM	90.4 ± 3.69%	18.8 µM	–	–	–	–	–	–	–	–	–
Cc1ccc(CNC(=O)Cc2c(C)[nH]c3ccc(Oc4ccccc4)cc23)cc1 [Compound 9, 2-Methyl-3-(4-methylbenzylethanamide-2-yl)-5-phenoxy Indole]	265 µM	–	31.25 µM	–	53.7 µM	–	12.5 ± 4.57%	80.38 ± 3.54%	95.21 ± 3.00%	–	–	–	–	–
O=C1O[C@H]([C@@H](O)CO)C(O)=C1O [Vitamin C, L-ascorbic acid, reference compound]	13.3 µM	–	–	–	–	–	–	–	–	–	–	–	–	–
